Patent US20230085307A1, “PYRIDAZINONE COMPOUND AND HERBICIDE” (NISSAN CHEMICAL CORPORATION, priority 2019, published 2023)

What was measured:
[1] = test system: redroot pigweed; experiment: Test Example 5: herbicidal effect by foliage application, plastic box (Table 20, symbol N); type: in vivo, redroot pigweed (Amaranthus retroflexus); settings: foliage application, 320 g/ha, evaluated three weeks after application
How it was run: (§1)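 Plants sown in sterilized diluvial soil and grown 14 days in a greenhouse at 25° C to 30° C, then sprayed on the foliage with the compound's emulsion diluted in water to a predetermined herbicide amount. Injury to weeds and crops scored three weeks after application on a visual rating scale.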

[2] = test system: persian speedwell; experiment: Test Example 5: herbicidal effect by foliage application, plastic box (Table 20, symbol R); type: in vivo, Persian speedwell (Veronica persica); settings: foliage application, 320 g/ha, evaluated three weeks after application
How it was run: as §1

[3] = test system: velvetleaf; experiment: Test Example 4: herbicidal effect by soil treatment (Table 19, symbol M); type: in vivo, velvetleaf (Abutilon theophrasti); settings: amount of applied herbicide 320 g/ha
How it was run: (§2)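 Seeds were sown in sterilized diluvial soil and covered with about 1.5 cm of soil. An emulsion formulation diluted with water to a predetermined herbicide amount was sprayed evenly onto the soil surface. Plants grew in a greenhouse at 25° C. to 30° C., and the effect was scored three weeks after application using criteria from an earlier test.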

[4] = test system: southern crabgrass; experiment: Test Example 5: herbicidal effect by foliage application, plastic box (Table 20, symbol F); type: in vivo, southern crabgrass (Digitaria ciliaris); settings: foliage application, 320 g/ha, evaluated three weeks after application
How it was run: as §1

[5] = test system: green foxtail; experiment: Test Example 5: herbicidal effect by foliage application, plastic box (Table 20, symbol G); type: in vivo, green foxtail (Setaria viridis); settings: foliage application, 320 g/ha, evaluated three weeks after application
How it was run: as §1

[6] = test system: redroot pigweed; experiment: Test Example 4: herbicidal effect by soil treatment (Table 19, symbol N); type: in vivo, redroot pigweed (Amaranthus retroflexus); settings: amount of applied herbicide 320 g/ha
How it was run: as §2

[7] = test system: chickweed; experiment: Test Example 4: herbicidal effect by soil treatment (Table 19, symbol P); type: in vivo, common chickweed (Stellaria media); settings: amount of applied herbicide 320 g/ha
How it was run: as §2

[8] = test system: wild oat; experiment: Test Example 4: herbicidal effect by soil treatment (Table 19, symbol I); type: in vivo, wild oat (Avena fatua); settings: amount of applied herbicide 320 g/ha
How it was run: as §2

[9] = test system: barnyard grass; experiment: Test Example 3: herbicidal effect by foliage application, Wagner pot (Table 18, symbol H); type: in vivo, barnyard grass (Echinochloa crus-galli); settings: amount of applied herbicide 320 g/ha
How it was run: (§3)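 Plants were sown in alluvial soil held under 0.1–0.5 cm standing water and grown 14 days in a greenhouse at 25–30 °C. An emulsifiable formulation, water-diluted to the set dose, was then sprayed onto the foliage, and effects were scored three weeks later using previously defined criteria.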

[10] = test system: lambsquarters; experiment: Test Example 5: herbicidal effect by foliage application, plastic box (Table 20, symbol O); type: in vivo, lambsquarters (Chenopodium album); settings: foliage application, 320 g/ha, evaluated three weeks after application
How it was run: as §1

[11] = test system: barnyard grass; experiment: Test Example 5: herbicidal effect by foliage application, plastic box (Table 20, symbol H); type: in vivo, barnyard grass (Echinochloa crus-galli); settings: foliage application, 320 g/ha, evaluated three weeks after application
How it was run: as §1

[12] = test system: windgrass; experiment: Test Example 5: herbicidal effect by foliage application, plastic box (Table 20, symbol L); type: in vivo, windgrass (Apera spica-venti); settings: foliage application, 320 g/ha, evaluated three weeks after application
How it was run: as §1

[13] = test system: Italian ryegrass; experiment: Test Example 4: herbicidal effect by soil treatment (Table 19, symbol K); type: in vivo, Italian ryegrass (Lolium multiflorum); settings: amount of applied herbicide 320 g/ha
How it was run: as §2

[14] = test system: chickweed; experiment: Test Example 5: herbicidal effect by foliage application, plastic box (Table 20, symbol P); type: in vivo, common chickweed (Stellaria media); settings: foliage application, 320 g/ha, evaluated three weeks after application
How it was run: as §1

[15] = test system: blackgrass; experiment: Test Example 5: herbicidal effect by foliage application, plastic box (Table 20, symbol J); type: in vivo, blackgrass (Alopecurus myosuroides); settings: foliage application, 320 g/ha, evaluated three weeks after application
How it was run: as §1

[16] = test system: blackgrass; experiment: Test Example 4: herbicidal effect by soil treatment (Table 19, symbol J); type: in vivo, blackgrass (Alopecurus myosuroides); settings: amount of applied herbicide 320 g/ha
How it was run: as §2

[17] = test system: green foxtail; experiment: Test Example 4: herbicidal effect by soil treatment (Table 19, symbol G); type: in vivo, green foxtail (Setaria viridis); settings: amount of applied herbicide 320 g/ha
How it was run: as §2

[18] = test system: southern crabgrass; experiment: Test Example 4: herbicidal effect by soil treatment (Table 19, symbol F); type: in vivo, southern crabgrass (Digitaria ciliaris); settings: amount of applied herbicide 320 g/ha
How it was run: as §2

[19] = test system: windgrass; experiment: Test Example 4: herbicidal effect by soil treatment (Table 19, symbol L); type: in vivo, windgrass (Apera spica-venti); settings: amount of applied herbicide 320 g/ha
How it was run: as §2

[20] = test system: Chinese sprangletop; experiment: Test Example 3: herbicidal effect by foliage application, Wagner pot (Table 18, symbol D); type: in vivo, chinese sprangletop (Leptochloa chinensis); settings: amount of applied herbicide 320 g/ha
How it was run: as §3

[21] = test system: wild oat; experiment: Test Example 5: herbicidal effect by foliage application, plastic box (Table 20, symbol I); type: in vivo, wild oat (Avena fatua); settings: foliage application, 320 g/ha, evaluated three weeks after application
How it was run: as §1

[22] = test system: velvetleaf; experiment: Test Example 5: herbicidal effect by foliage application, plastic box (Table 20, symbol M); type: in vivo, velvetleaf (Abutilon theophrasti); settings: foliage application, 320 g/ha, evaluated three weeks after application
How it was run: as §1

[23] = test system: rice flat sedge; experiment: Test Example 3: herbicidal effect by foliage application, Wagner pot (Table 18, symbol E); type: in vivo, rice flat sedge (Cyperus iria); settings: amount of applied herbicide 320 g/ha
How it was run: as §3

[24] = test system: persian speedwell; experiment: Test Example 4: herbicidal effect by soil treatment (Table 19, symbol R); type: in vivo, Persian speedwell (Veronica persica); settings: amount of applied herbicide 320 g/ha
How it was run: as §2

[25] = test system: lambsquarters; experiment: Test Example 4: herbicidal effect by soil treatment (Table 19, symbol O); type: in vivo, lambsquarters (Chenopodium album); settings: amount of applied herbicide 320 g/ha
How it was run: as §2

[26] = test system: barnyard grass; experiment: Test Example 4: herbicidal effect by soil treatment (Table 19, symbol H); type: in vivo, barnyard grass (Echinochloa crus-galli); settings: amount of applied herbicide 320 g/ha
How it was run: as §2

[27] = test system: Italian ryegrass; experiment: Test Example 5: herbicidal effect by foliage application, plastic box (Table 20, symbol K); type: in vivo, Italian ryegrass (Lolium multiflorum); settings: foliage application, 320 g/ha, evaluated three weeks after application
How it was run: as §1

Cc1nn(C)c(=O)c(-c2c(-c3cccc(C(F)(F)F)c3)sc3ccc(F)cc23)c1O [2-231]
herbicidal effect on N: redroot pigweed (criteria 0-5) [1]: 3 (Herbicidal rate of 40% or more and less than 70%)
herbicidal effect on R: persian speedwell (criteria 0-5) [2]: 4 (Herbicidal rate of 70% or more and less than 90%)
herbicidal effect on M: velvetleaf [3]: 0 (Herbicidal rate of 5% or less (almost no effect))
herbicidal effect on F: southern crabgrass (criteria 0-5) [4]: 0 (Herbicidal rate of 5% or less (almost no effect))
herbicidal effect on G: green foxtail (criteria 0-5) [5]: 3 (Herbicidal rate of 40% or more and less than 70%)
herbicidal effect on N: redroot pigweed [6]: 0 (Herbicidal rate of 5% or less (almost no effect))
herbicidal effect on P: chickweed [7]: 3 (Herbicidal rate of 40% or more and less than 70%)
herbicidal effect on I: wild oat [8]: 0 (Herbicidal rate of 5% or less (almost no effect))
herbicidal effect on H: barnyard grass [9]: 4 (Herbicidal rate of 70% or more and less than 90%)
herbicidal effect on O: lambsquarters (criteria 0-5) [10]: 3 (Herbicidal rate of 40% or more and less than 70%)
herbicidal effect on H: barnyard grass (criteria 0-5) [11]: 2 (Herbicidal rate of 20% or more and less than 40%)
herbicidal effect on L: windgrass (criteria 0-5) [12]: 4 (Herbicidal rate of 70% or more and less than 90%)
herbicidal effect on K: Italian ryegrass [13]: 0 (Herbicidal rate of 5% or less (almost no effect))
herbicidal effect on P: chickweed (criteria 0-5) [14]: 5 (Herbicidal rate of 90% or more (almost completely withered))
herbicidal effect on J: blackgrass (criteria 0-5) [15]: 0 (Herbicidal rate of 5% or less (almost no effect))
herbicidal effect on J: blackgrass [16]: 0 (Herbicidal rate of 5% or less (almost no effect))
herbicidal effect on G: green foxtail [17]: 0 (Herbicidal rate of 5% or less (almost no effect))
herbicidal effect on F: southern crabgrass [18]: 0 (Herbicidal rate of 5% or less (almost no effect))
herbicidal effect on L: windgrass [19]: 0 (Herbicidal rate of 5% or less (almost no effect))
herbicidal effect on D: Chinese sprangletop [20]: 3 (Herbicidal rate of 40% or more and less than 70%)
herbicidal effect on I: wild oat (criteria 0-5) [21]: 0 (Herbicidal rate of 5% or less (almost no effect))
herbicidal effect on M: velvetleaf (criteria 0-5) [22]: 4 (Herbicidal rate of 70% or more and less than 90%)
herbicidal effect on E: rice flat sedge [23]: 5 (Herbicidal rate of 90% or more (almost completely withered))
herbicidal effect on R: persian speedwell [24]: 0 (Herbicidal rate of 5% or less (almost no effect))
herbicidal effect on O: lambsquarters [25]: 1 (Herbicidal rate of 5% or more and less than 20%)
herbicidal effect on H: barnyard grass [26]: 0 (Herbicidal rate of 5% or less (almost no effect))
herbicidal effect on K: Italian ryegrass (criteria 0-5) [27]: 0 (Herbicidal rate of 5% or less (almost no effect))
